Three compounds from the kinase profiling compilation of Christmann-Franck et al. (2016) can be followed below.

Sequence of CSNK2A1 (human) (P68400 whole entry, looked up): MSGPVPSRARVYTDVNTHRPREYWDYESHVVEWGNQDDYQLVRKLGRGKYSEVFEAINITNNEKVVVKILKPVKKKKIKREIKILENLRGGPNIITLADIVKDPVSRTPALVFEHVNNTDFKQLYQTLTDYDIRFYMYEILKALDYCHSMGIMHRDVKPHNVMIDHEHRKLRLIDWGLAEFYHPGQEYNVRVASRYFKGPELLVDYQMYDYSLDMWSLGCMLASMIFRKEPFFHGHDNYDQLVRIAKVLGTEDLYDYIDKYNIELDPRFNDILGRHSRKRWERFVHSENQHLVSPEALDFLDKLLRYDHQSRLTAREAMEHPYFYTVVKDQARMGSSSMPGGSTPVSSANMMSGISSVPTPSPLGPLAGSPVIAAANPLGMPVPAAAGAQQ
Sequence of AKT1 (human) (P31749 whole entry, looked up): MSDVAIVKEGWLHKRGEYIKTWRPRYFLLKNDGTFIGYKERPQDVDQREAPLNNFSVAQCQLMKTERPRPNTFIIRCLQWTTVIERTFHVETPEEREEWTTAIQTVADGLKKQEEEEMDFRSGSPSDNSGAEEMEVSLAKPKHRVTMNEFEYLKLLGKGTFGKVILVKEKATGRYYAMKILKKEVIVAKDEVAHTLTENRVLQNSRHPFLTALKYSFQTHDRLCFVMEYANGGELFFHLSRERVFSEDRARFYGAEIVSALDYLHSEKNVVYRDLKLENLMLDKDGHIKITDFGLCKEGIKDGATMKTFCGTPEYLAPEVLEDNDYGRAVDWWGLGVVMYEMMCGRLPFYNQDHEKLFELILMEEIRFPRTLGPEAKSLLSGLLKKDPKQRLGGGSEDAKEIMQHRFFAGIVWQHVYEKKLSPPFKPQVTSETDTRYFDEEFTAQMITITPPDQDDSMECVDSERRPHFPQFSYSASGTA
Sequence of RPS6KA2 KD1 KD2 (human) (Q15349 whole entry, looked up): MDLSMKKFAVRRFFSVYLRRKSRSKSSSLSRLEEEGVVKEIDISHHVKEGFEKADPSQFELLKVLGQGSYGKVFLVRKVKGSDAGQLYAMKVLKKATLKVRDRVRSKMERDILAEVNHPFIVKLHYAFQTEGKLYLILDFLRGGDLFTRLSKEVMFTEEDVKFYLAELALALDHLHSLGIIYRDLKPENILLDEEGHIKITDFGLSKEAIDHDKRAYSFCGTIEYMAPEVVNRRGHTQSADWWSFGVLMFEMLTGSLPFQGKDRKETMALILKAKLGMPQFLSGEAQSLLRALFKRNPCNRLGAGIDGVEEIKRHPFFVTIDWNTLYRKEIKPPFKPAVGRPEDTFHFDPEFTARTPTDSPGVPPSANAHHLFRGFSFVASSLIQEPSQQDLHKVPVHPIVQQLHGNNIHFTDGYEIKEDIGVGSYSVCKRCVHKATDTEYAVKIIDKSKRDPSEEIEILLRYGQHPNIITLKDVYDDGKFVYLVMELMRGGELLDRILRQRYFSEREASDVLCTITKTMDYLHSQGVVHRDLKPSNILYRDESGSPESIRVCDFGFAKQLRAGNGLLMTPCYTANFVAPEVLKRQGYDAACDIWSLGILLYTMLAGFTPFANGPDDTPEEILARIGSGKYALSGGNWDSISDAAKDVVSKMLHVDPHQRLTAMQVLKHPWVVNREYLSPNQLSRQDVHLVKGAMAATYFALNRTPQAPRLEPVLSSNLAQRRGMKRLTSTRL
Sequence of SGK2 (human) (Q9HBY8 whole entry, looked up): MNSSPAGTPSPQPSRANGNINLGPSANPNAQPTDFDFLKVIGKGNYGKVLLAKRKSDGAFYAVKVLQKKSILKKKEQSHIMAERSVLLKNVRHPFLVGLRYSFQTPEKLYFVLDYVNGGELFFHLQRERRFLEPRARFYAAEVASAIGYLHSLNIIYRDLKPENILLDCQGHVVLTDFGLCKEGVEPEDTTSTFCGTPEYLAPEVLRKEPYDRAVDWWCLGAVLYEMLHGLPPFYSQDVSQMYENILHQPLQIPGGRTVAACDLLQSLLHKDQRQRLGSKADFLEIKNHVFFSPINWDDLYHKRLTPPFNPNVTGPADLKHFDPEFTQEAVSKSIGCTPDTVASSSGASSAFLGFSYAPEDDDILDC
Sequence of STK17A (human) (Q9UEE5 whole entry, looked up): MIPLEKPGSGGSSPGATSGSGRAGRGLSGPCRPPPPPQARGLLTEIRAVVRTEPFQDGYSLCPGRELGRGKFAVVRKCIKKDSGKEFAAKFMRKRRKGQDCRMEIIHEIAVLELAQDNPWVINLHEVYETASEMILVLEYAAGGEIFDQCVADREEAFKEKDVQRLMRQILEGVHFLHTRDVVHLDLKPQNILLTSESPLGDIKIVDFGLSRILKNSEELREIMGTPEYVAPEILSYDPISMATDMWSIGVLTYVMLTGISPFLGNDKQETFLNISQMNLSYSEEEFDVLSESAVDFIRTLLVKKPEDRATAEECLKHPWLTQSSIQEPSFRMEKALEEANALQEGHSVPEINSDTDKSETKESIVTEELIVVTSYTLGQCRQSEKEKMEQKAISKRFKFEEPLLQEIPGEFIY

For one experiment, the target named is DYRK1B (human) (UniProt Q9Y463). In words: radiometric filter-binding kinase assay, Kinase HotSpot. The following applies: compound 0.5 µM; ATP 10 µM.
Regarding `CCCC(=O)Oc1ccc2[nH]c(C(=O)c3cc4ccccc4[nH]3)cc2c1`, the residual activity (in general, the signal under treatment as a percentage of the control signal) came to 103%.
On the same count and under the same terms, the same measure for `CNC(=O)c1cc(Oc2ccc(NC(=O)Nc3ccc(Cl)c(C(F)(F)F)c3)cc2)ccn1`: 93.2%.
On the same count and under the same terms, the same measure for `Nc1ncnc2c1c(-c1ccc(Oc3ccccc3)cc1)cn2C1CCCC1`: 92.2%.

The next experiment has as its target STK17A (human) (UniProt Q9UEE5). Described as above. The conditions noted are these: compound 0.5 µM; ATP 10 µM.
Regarding `CCCC(=O)Oc1ccc2[nH]c(C(=O)c3cc4ccccc4[nH]3)cc2c1`, the residual activity stood at 90.9%.
For `CNC(=O)c1cc(Oc2ccc(NC(=O)Nc3ccc(Cl)c(C(F)(F)F)c3)cc2)ccn1`, the residual activity is 96%.
For the compound `Nc1ncnc2c1c(-c1ccc(Oc3ccccc3)cc1)cn2C1CCCC1`, the residual activity turned out to be 96.3%.

The next experiment has as its target CSNK2A1 (human) (UniProt P68400). The experiment is described as above. The conditions noted are these: compound 0.5 µM; ATP 10 µM.
On to `CCCC(=O)Oc1ccc2[nH]c(C(=O)c3cc4ccccc4[nH]3)cc2c1`, for which the residual activity was found to be 99.8%.
Consider `CNC(=O)c1cc(Oc2ccc(NC(=O)Nc3ccc(Cl)c(C(F)(F)F)c3)cc2)ccn1`, for which the residual activity stood at 108%.
As to `Nc1ncnc2c1c(-c1ccc(Oc3ccccc3)cc1)cn2C1CCCC1`, the residual activity came out at 102%.

The next experiment addresses PHKG2 (human) (UniProt P15735). Described as above. The following applies: compound 0.5 µM; ATP 10 µM.
In the case of `CCCC(=O)Oc1ccc2[nH]c(C(=O)c3cc4ccccc4[nH]3)cc2c1`, the residual activity is 117%.
On the same count and under the same terms, with `CNC(=O)c1cc(Oc2ccc(NC(=O)Nc3ccc(Cl)c(C(F)(F)F)c3)cc2)ccn1` the figure was 91.3%.
On the same count and under the same terms, the same measure for `Nc1ncnc2c1c(-c1ccc(Oc3ccccc3)cc1)cn2C1CCCC1`: 96.9%.

The next experiment has as its target DYRK3 (human) (UniProt O43781). The description is as above. The following applies: compound 0.5 µM; ATP 10 µM.
Consider `CCCC(=O)Oc1ccc2[nH]c(C(=O)c3cc4ccccc4[nH]3)cc2c1`, for which the residual activity is 92.6%.
On the same count and under the same terms, with `CNC(=O)c1cc(Oc2ccc(NC(=O)Nc3ccc(Cl)c(C(F)(F)F)c3)cc2)ccn1` the figure was 92.7%; with `Nc1ncnc2c1c(-c1ccc(Oc3ccccc3)cc1)cn2C1CCCC1`, 94.9%.

The next experiment concerns the target SGK2 (human) (UniProt Q9HBY8). Described as above. The conditions noted are these: compound 0.5 µM; ATP 10 µM.
On to `CCCC(=O)Oc1ccc2[nH]c(C(=O)c3cc4ccccc4[nH]3)cc2c1`, for which the residual activity turned out to be 99.4%.
Still for that read-out and setting: the same measure for `CNC(=O)c1cc(Oc2ccc(NC(=O)Nc3ccc(Cl)c(C(F)(F)F)c3)cc2)ccn1`: 103%.
Same read-out and setting: the same measure for `Nc1ncnc2c1c(-c1ccc(Oc3ccccc3)cc1)cn2C1CCCC1`: 95.4%.

The target in the next experiment is PAK2 (human) (UniProt Q13177). The experiment is described as above. The following applies: compound 0.5 µM; ATP 10 µM.
On to `CCCC(=O)Oc1ccc2[nH]c(C(=O)c3cc4ccccc4[nH]3)cc2c1`, for which the residual activity turned out to be 102%.
Regarding `CNC(=O)c1cc(Oc2ccc(NC(=O)Nc3ccc(Cl)c(C(F)(F)F)c3)cc2)ccn1`, the residual activity worked out at 101%.
Take `Nc1ncnc2c1c(-c1ccc(Oc3ccccc3)cc1)cn2C1CCCC1`: the residual activity is 106%.

In another experiment the target is NLK (human) (UniProt Q9UBE8). The description is as above. The conditions noted are these: compound 0.5 µM; ATP 10 µM.
`CCCC(=O)Oc1ccc2[nH]c(C(=O)c3cc4ccccc4[nH]3)cc2c1`: the residual activity was determined as 106%.
The same measure, in the same setting: the same measure for `CNC(=O)c1cc(Oc2ccc(NC(=O)Nc3ccc(Cl)c(C(F)(F)F)c3)cc2)ccn1`: 99.1%; for `Nc1ncnc2c1c(-c1ccc(Oc3ccccc3)cc1)cn2C1CCCC1`: 96.9%.

The target in the next experiment is ULK2 (human) (UniProt Q8IYT8). The experiment is described as above. The following applies: compound 0.5 µM; ATP 10 µM.
In the case of `CCCC(=O)Oc1ccc2[nH]c(C(=O)c3cc4ccccc4[nH]3)cc2c1`, the residual activity was 98.3%.
Still for that read-out and setting: with `CNC(=O)c1cc(Oc2ccc(NC(=O)Nc3ccc(Cl)c(C(F)(F)F)c3)cc2)ccn1` the figure was 106%; with `Nc1ncnc2c1c(-c1ccc(Oc3ccccc3)cc1)cn2C1CCCC1`, 125%.

The next experiment addresses AKT1 (human) (UniProt P31749). The description is as above. The conditions noted are these: compound 0.5 µM; ATP 10 µM.
For the compound `CCCC(=O)Oc1ccc2[nH]c(C(=O)c3cc4ccccc4[nH]3)cc2c1`, the residual activity came out at 102%.
As to `CNC(=O)c1cc(Oc2ccc(NC(=O)Nc3ccc(Cl)c(C(F)(F)F)c3)cc2)ccn1`, the residual activity came out at 96.2%.
Still for that read-out and setting: with `Nc1ncnc2c1c(-c1ccc(Oc3ccccc3)cc1)cn2C1CCCC1` the figure was 103%.

A further experiment concerns the target RPS6KA2 KD1 KD2 (human) (UniProt Q15349). Described as above. The following applies: compound 0.5 µM; ATP 10 µM.
With `CCCC(=O)Oc1ccc2[nH]c(C(=O)c3cc4ccccc4[nH]3)cc2c1`, the residual activity is 85%.
On the same count and under the same terms, with `CNC(=O)c1cc(Oc2ccc(NC(=O)Nc3ccc(Cl)c(C(F)(F)F)c3)cc2)ccn1` the figure was 93.3%.
Same read-out and setting: with `Nc1ncnc2c1c(-c1ccc(Oc3ccccc3)cc1)cn2C1CCCC1` the figure was 101%.

The next experiment addresses MAP4K5 (human) (UniProt Q9Y4K4). Described as above. The conditions noted are these: compound 0.5 µM; ATP 10 µM.
Regarding `CCCC(=O)Oc1ccc2[nH]c(C(=O)c3cc4ccccc4[nH]3)cc2c1`, the residual activity is 88%.
Same read-out and setting: with `CNC(=O)c1cc(Oc2ccc(NC(=O)Nc3ccc(Cl)c(C(F)(F)F)c3)cc2)ccn1` the figure was 57%; with `Nc1ncnc2c1c(-c1ccc(Oc3ccccc3)cc1)cn2C1CCCC1`, 80.2%.

The next experiment addresses CDK2 CCNA2 (human) (UniProt P24941+P20248). The experiment is described as above. The following applies: compound 0.5 µM; ATP 10 µM.
Regarding `CCCC(=O)Oc1ccc2[nH]c(C(=O)c3cc4ccccc4[nH]3)cc2c1`, the residual activity worked out at 88.9%.
On the same count and under the same terms, the same measure for `CNC(=O)c1cc(Oc2ccc(NC(=O)Nc3ccc(Cl)c(C(F)(F)F)c3)cc2)ccn1`: 99.7%; for `Nc1ncnc2c1c(-c1ccc(Oc3ccccc3)cc1)cn2C1CCCC1`: 104%.

The target of a further experiment is PRKD1 (human) (UniProt Q15139). The experiment is described as above. The conditions noted are these: compound 0.5 µM; ATP 10 µM.
Sequence of PRKD1 (human) (Q15139 whole entry, looked up): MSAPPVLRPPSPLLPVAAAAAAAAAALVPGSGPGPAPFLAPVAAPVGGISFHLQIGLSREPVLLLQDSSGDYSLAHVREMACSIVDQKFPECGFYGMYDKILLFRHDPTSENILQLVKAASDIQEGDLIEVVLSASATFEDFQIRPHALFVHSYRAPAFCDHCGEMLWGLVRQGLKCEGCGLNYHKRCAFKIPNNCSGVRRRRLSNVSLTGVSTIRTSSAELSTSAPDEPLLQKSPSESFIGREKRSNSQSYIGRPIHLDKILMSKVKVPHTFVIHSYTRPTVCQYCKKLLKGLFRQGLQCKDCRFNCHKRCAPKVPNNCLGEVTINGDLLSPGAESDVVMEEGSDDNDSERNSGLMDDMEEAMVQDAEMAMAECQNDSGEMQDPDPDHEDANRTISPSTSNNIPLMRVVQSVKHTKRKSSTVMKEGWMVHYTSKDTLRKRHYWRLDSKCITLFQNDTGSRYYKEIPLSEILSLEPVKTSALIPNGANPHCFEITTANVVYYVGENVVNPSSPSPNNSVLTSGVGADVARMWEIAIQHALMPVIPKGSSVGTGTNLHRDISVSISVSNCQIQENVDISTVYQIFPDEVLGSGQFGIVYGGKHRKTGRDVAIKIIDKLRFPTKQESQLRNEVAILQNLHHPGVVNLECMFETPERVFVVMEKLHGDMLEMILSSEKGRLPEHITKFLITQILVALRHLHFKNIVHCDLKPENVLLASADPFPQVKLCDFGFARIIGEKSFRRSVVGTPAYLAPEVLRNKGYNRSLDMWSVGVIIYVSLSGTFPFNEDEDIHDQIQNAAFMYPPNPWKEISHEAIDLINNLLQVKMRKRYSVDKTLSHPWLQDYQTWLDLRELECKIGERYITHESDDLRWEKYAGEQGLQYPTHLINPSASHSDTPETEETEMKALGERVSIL
As to `CCCC(=O)Oc1ccc2[nH]c(C(=O)c3cc4ccccc4[nH]3)cc2c1`, the residual activity was 88.7%.
Turning to `CNC(=O)c1cc(Oc2ccc(NC(=O)Nc3ccc(Cl)c(C(F)(F)F)c3)cc2)ccn1`, the residual activity was found to be 99.7%.
Same read-out and setting: with `Nc1ncnc2c1c(-c1ccc(Oc3ccccc3)cc1)cn2C1CCCC1` the figure was 96.2%.

The target in the next experiment is ALK (human) (UniProt Q9UM73). The experiment is described as above. The conditions noted are these: compound 0.5 µM; ATP 10 µM.
For `CCCC(=O)Oc1ccc2[nH]c(C(=O)c3cc4ccccc4[nH]3)cc2c1`, the residual activity was determined as 83.7%.
On the same count and under the same terms, the same measure for `CNC(=O)c1cc(Oc2ccc(NC(=O)Nc3ccc(Cl)c(C(F)(F)F)c3)cc2)ccn1`: 97.3%; for `Nc1ncnc2c1c(-c1ccc(Oc3ccccc3)cc1)cn2C1CCCC1`: 80.6%.

The target of the next experiment is EPHA2 (human) (UniProt P29317). Described as above. The following applies: compound 0.5 µM; ATP 10 µM.
On to `CCCC(=O)Oc1ccc2[nH]c(C(=O)c3cc4ccccc4[nH]3)cc2c1`, for which the residual activity amounted to 99%.
Same read-out and setting: with `CNC(=O)c1cc(Oc2ccc(NC(=O)Nc3ccc(Cl)c(C(F)(F)F)c3)cc2)ccn1` the figure was 83.8%.
Still for that read-out and setting: the same measure for `Nc1ncnc2c1c(-c1ccc(Oc3ccccc3)cc1)cn2C1CCCC1`: 100%.

In another experiment the target is MAP3K8 (human) (UniProt P41279). The experiment is described as above. The following applies: compound 0.5 µM; ATP 10 µM.
Sequence of MAP3K8 (human) (P41279 whole entry, looked up): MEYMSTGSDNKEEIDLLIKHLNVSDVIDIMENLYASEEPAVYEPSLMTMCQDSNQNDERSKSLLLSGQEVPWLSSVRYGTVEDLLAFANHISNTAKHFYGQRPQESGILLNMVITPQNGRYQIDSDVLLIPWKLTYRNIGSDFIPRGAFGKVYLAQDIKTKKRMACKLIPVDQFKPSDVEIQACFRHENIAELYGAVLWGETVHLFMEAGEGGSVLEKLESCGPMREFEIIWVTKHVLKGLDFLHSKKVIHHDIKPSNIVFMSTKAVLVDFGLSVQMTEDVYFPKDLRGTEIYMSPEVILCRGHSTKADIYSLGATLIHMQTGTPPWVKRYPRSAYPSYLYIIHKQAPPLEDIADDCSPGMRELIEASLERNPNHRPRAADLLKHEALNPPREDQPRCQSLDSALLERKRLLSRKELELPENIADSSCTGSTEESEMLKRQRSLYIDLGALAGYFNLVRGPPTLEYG
In the case of `CCCC(=O)Oc1ccc2[nH]c(C(=O)c3cc4ccccc4[nH]3)cc2c1`, the residual activity came out at 97.6%.
Turning to `CNC(=O)c1cc(Oc2ccc(NC(=O)Nc3ccc(Cl)c(C(F)(F)F)c3)cc2)ccn1`, the residual activity stood at 93.6%.
Still for that read-out and setting: with `Nc1ncnc2c1c(-c1ccc(Oc3ccccc3)cc1)cn2C1CCCC1` the figure was 83.3%.

In the next experiment the target is JAK1 JH1 catalytic (human) (UniProt P23458). Described as above. The conditions noted are these: compound 0.5 µM; ATP 10 µM.
Sequence of JAK1 JH1 catalytic (human) (P23458 whole entry, looked up): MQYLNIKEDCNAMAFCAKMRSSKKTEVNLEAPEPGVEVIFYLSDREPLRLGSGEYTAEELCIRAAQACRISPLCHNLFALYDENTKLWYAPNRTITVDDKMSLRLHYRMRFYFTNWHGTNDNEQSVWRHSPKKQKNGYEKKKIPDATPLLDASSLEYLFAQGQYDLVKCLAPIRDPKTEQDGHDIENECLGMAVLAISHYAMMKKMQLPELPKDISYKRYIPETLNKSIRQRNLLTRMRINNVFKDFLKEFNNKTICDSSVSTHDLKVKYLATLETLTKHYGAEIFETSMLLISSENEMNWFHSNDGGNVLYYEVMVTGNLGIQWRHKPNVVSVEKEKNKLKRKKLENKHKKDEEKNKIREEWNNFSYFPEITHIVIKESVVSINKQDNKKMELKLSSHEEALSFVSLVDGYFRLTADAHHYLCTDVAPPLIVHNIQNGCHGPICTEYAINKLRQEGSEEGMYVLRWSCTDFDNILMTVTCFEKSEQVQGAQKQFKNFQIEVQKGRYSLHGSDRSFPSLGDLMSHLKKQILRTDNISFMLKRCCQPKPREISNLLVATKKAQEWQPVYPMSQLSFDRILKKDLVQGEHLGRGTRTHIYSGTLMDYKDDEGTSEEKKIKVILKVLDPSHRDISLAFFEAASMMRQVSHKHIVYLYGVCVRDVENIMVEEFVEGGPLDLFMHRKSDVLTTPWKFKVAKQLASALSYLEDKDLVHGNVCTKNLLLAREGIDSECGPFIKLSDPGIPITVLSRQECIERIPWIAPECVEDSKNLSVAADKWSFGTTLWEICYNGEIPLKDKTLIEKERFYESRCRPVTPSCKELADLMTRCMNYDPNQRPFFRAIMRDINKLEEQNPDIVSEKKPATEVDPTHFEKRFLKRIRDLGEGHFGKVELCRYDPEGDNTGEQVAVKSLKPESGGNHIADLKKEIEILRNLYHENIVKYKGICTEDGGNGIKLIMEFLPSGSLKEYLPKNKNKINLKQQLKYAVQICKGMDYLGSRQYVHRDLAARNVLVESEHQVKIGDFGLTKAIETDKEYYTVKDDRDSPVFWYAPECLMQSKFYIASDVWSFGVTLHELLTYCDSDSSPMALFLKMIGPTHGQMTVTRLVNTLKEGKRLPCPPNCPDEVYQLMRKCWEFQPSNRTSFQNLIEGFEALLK
For `CCCC(=O)Oc1ccc2[nH]c(C(=O)c3cc4ccccc4[nH]3)cc2c1`, the residual activity was 104%.
Same read-out and setting: the same measure for `CNC(=O)c1cc(Oc2ccc(NC(=O)Nc3ccc(Cl)c(C(F)(F)F)c3)cc2)ccn1`: 110%.
`Nc1ncnc2c1c(-c1ccc(Oc3ccccc3)cc1)cn2C1CCCC1`: the residual activity was determined as 111%.

The next experiment addresses TNK2 (human) (UniProt Q07912). The experiment is described as above. The following applies: compound 0.5 µM; ATP 10 µM.
For `CCCC(=O)Oc1ccc2[nH]c(C(=O)c3cc4ccccc4[nH]3)cc2c1`, the residual activity is 77.7%.
Same read-out and setting: the same measure for `CNC(=O)c1cc(Oc2ccc(NC(=O)Nc3ccc(Cl)c(C(F)(F)F)c3)cc2)ccn1`: 97.6%; for `Nc1ncnc2c1c(-c1ccc(Oc3ccccc3)cc1)cn2C1CCCC1`: 2.7%.

A further experiment has as its target PRKX (human) (UniProt P51817). The description is as above. The conditions noted are these: compound 0.5 µM; ATP 10 µM.
As for `CCCC(=O)Oc1ccc2[nH]c(C(=O)c3cc4ccccc4[nH]3)cc2c1`, the residual activity stood at 96.1%.
For `CNC(=O)c1cc(Oc2ccc(NC(=O)Nc3ccc(Cl)c(C(F)(F)F)c3)cc2)ccn1`, the residual activity worked out at 97.7%.
The same measure, in the same setting: the same measure for `Nc1ncnc2c1c(-c1ccc(Oc3ccccc3)cc1)cn2C1CCCC1`: 102%.

The target in the next experiment is MET (human) (UniProt P08581). The experiment is described as above. The conditions noted are these: compound 0.5 µM; ATP 10 µM.
Regarding `CCCC(=O)Oc1ccc2[nH]c(C(=O)c3cc4ccccc4[nH]3)cc2c1`, the residual activity was determined as 103%.
The same measure, in the same setting: the same measure for `CNC(=O)c1cc(Oc2ccc(NC(=O)Nc3ccc(Cl)c(C(F)(F)F)c3)cc2)ccn1`: 105%; for `Nc1ncnc2c1c(-c1ccc(Oc3ccccc3)cc1)cn2C1CCCC1`: 110%.
